Reference: BindingDB's records for doi:10.7270/Q2F18X5F (Nmmlsc, 2010)

Molecular target: T1, Ammonium transporter MEP2 (Saccharomyces cerevisiae (strain ATCC 204508 / S288c), UniProt P41948)
T1 sequence (P41948 whole entry): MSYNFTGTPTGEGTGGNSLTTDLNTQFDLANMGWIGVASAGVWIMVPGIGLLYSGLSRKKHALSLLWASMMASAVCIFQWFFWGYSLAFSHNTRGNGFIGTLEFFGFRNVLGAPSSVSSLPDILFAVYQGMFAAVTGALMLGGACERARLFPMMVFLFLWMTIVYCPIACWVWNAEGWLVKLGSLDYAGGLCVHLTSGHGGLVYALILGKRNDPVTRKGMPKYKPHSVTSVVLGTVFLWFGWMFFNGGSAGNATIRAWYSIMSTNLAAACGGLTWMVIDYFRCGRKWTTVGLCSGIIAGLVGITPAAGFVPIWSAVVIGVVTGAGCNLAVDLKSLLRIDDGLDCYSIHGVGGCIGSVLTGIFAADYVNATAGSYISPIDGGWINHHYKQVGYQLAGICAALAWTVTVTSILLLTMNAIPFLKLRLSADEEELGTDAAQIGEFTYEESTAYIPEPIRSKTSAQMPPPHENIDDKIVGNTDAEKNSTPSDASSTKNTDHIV
Test: TOR pathway reporter MEP2-GFP, concentration series – S. cerevisiae, flow cytometry GFP, MLPCN hits, dose response (AID 2742)

- EC50: > 33 µM
Structure (SMILES): CCN1/C(=C/c2ccc3cc(C)ccc3[n+]2CC)Sc2ccc3sccc3c21 [MLS000724336]
